Assay [1] deals with NFAT proteins (pNFAT-Luc luciferase) in Jurkat cells. The assay is described as follows: NFAT reporter gene assay, pNFAT-Luc plasmid in Jurkat cells. It counts as cell-based, human. Particulars: Jurkat cells transfected with pNFAT-Luc, treated with 60 ng/ml of PMA and 1 μg/ml of inomycin in combination. The source says:
(§1) NFAT activation follows precisely the activation of calcineurin by increased free calcium levels in the cytoplasm. Researchers from diverse fields are interested in the NFAT family of transcription factors, which are potential targets for newer and safer immunosuppressive drugs. In addition, the activation of NFAT proteins involves various cellular signal transduction pathways, including calcium mobilization and mitogen-activated protein kinase (MAP kinase) pathways linked to T-cell receptors and Ras1. To assist researchers probing the activity of NFAT proteins, Stratagene has developed a PathDetect cis-reporter plasmid, the pNFAT-Luc reporter plasmid (Stratagene, Inc. catalog #219094), containing the NFAT binding site from the human IL-2 gene.2,7-9. The NEAT cis-reporting system includes the transfection-ready pNFAT-Luc reporter plasmid and the pCIS-CK negative control plasmid.
(§2) The backbone of the 5749-base-pair pNFAT-Luc plasmid is the pFR-Luc reporter plasmid of the aforementioned PathDetect trans-reporting system. […]
(§3) Cyclosporin inhibits the activity of calcineurin, a protein phosphatase regulated by intracellular calcium mobilization. […] The inhibition of luciferase expression from pNFAT-Luc in the present model, in both Jurkat and CHO cells induced by PMA and ionomycin, was monitored for cyclosporin (as a positive control) and the cyclosporin analogs of the present invention.

Assay [2] concerns NFAT proteins (pNFAT-Luc luciferase) in Chinese hamster ovary cells (CHO cells). Briefly: NFAT reporter gene assay, pNFAT-Luc plasmid in CHO cells. Particulars: CHO cells transfected with pNFAT-Luc, treated with 60 ng/ml of PMA and 1 μg/ml of inomycin in combination. It counts as cell-based.
Description: as §1, §2, §3
In general terms: Reporter assays use an easily measured gene product as a stand-in for the process of interest.

Assay [3] concerns NFAT proteins (pNFAT-Luc luciferase) in cells transfected with pNFAT-Luc. The assay is described as follows: NFAT reporter gene assay, cells transfected with pNFAT-Luc, single stimulus. The class given is cell-based. Particulars: treated with either PMA or onomycin alone.
Description: as §1
The backbone of the 5749-base-pair pNFAT-Luc plasmid is the pFR-Luc reporter plasmid of the aforementioned PathDetect trans-reporting system. To this backbone, the GAL4 binding element was replaced with four direct repeats of the NFAT binding sequence (−286 to −257) from the IL-2 gene promoter, the most studied and widely used NFAT binding sequence. […]

For the compound `CCCCCCCCCCCCCC(=O)O[C@@H]1[C@@H](C)[C@@]2(O)[C@@H](C=C(CO)C[C@]3(O)C(=O)C(C)=C[C@@H]23)[C@@H]2C(C)(C)[C@]12OC(C)=O` [PMA], the luciferase activity increased is 13 fold in assay [1] and 16 fold in assay [2]. Further, the “increase in luciferase activity” value in assay [3] is “did not show a significant increase”.
Regarding `C[C@H](CCC(=O)O)C[C@H](C)C[C@H](C)C(=O)/C=C(\O)[C@H](C)C[C@H](C)C/C=C/[C@@H](C)[C@@H](O)[C@@H](C)[C@@H](O)C[C@@H]1CC[C@@](C)([C@H]2CC[C@@](C)([C@@H](C)O)O2)O1` [onomycin], the “increase in luciferase activity” value in assay [3] is given as “did not show a significant increase”.

For the origin of these results see patent US6809077B2, “Cyclosporin analogs for the treatment of autoimmune diseases” (Enanta Pharmaceuticals, Inc., priority 2001, dated 2004).
